Assay results taken from ChEMBL document CHEMBL5584323, “Peptide-Mediated Small Molecule Lysosome-Targeting Chimeras for Targeted Degradation of Membrane and Intracellular Proteins” (J Med Chem, 2024).
Active and inactive are the calls of the source. No cut-off for these calls is given here. Starred links: 1 amine or outer side, 2 acyl side, 3 side chain; linkers in the order of their positions; H or OH if unused. Non-standard residues stand in square brackets, D forms with d. Residues, ends and D or L forms follow the SMILES beside them. *: point of attachment. X5 = Nc1ncnc2c1c(-c1ccc(Oc3ccccc3)cc1)nn2[C@@H]1CCCN(C(=O)/C=C/CN2CCN(CCOCCOCCC(=O)*)CC2)C1; X4 = COc1nc(OCc2cccc(-c3ccccc3)c2C)ccc1CNCCNC(=O)CCCc1cn(CC(=O)*)nn1; X1 = Cc1ccc(-n2nc3c(=O)n(CCCC(=O)*)nc(C)c3c2C)cc1; X2 = O=S(=O)(c1ccc(NC(=S)NCc2cccnc2)cc1)*; X3 = O=C(CCCCCCCN1CCN([*:1])CC1)[*:2]; Aoc = NCCCCCCCC(=O)O

Key:
[1] = test system: MIA PaCa-2; experiment: Antiproliferative activity against human MIA PaCa-2 cells incubated for 72 hrs by CKK8 assay; format: functional, cell-based; settings: MIA PaCa-2, 72 h
[2] = target: T1, Nicotinamide phosphoribosyltransferase (Homo sapiens, UniProt P43490); experiment: Peptide-mediated small molecule lysosome-targeting chimeric activity based NAMPT degradation in human A2780 cells incubated for 48 hrs by Western blot analysis; format: cell-based
[3] = target: T1, Nicotinamide phosphoribosyltransferase; experiment: Peptide-mediated small molecule lysosome-targeting chimeric activity based NAMPT degradation in human A2780 cells at 1 to 40 uM incubated for 48 hrs by Western blot analysis relative to control; format: cell-based; settings: dose 1-40 µM
Target sequence in this assay (P43490 whole entry, looked up): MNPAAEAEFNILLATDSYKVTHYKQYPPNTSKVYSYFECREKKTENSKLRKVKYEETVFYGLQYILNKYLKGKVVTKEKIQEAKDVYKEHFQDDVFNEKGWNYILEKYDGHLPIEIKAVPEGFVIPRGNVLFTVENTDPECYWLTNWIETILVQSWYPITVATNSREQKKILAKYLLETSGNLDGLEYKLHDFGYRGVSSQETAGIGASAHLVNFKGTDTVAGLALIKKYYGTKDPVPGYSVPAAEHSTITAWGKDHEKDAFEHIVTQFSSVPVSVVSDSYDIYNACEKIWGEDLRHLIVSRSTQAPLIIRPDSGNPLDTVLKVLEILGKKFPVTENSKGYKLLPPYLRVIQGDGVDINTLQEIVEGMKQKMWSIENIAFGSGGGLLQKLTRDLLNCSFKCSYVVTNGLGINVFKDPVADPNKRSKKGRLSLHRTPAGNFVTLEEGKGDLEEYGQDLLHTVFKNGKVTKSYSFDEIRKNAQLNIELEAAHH

[4] = target: T1, Nicotinamide phosphoribosyltransferase; experiment: Peptide-mediated small molecule lysosome-targeting chimeric activity based NAMPT degradation in human MOLT-4 cells incubated for 48 hrs by Western blot analysis; format: cell-based
[5] = target: T1, Nicotinamide phosphoribosyltransferase; experiment: Peptide-mediated small molecule lysosome-targeting chimeric activity based NAMPT degradation in human MOLT-4 cells at 1 to 40 uM incubated for 48 hrs by Western blot analysis relative to control; format: cell-based; settings: dose 1-40 µM
Target sequence in this assay (P43490 whole entry, looked up): as above

[6] = target: T2, Programmed cell death 1 ligand 1 (Homo sapiens, UniProt Q9NZQ7); experiment: Peptide-mediated small molecule lysosome-targeting chimeric activity based PD-L1 degradation in human A549 cells at 0.1 to 5 uM incubated for 48 hrs by Western blot analysis relative to control; format: cell-based; settings: dose 0.1-5 µM
T2 sequence (Q9NZQ7 whole entry): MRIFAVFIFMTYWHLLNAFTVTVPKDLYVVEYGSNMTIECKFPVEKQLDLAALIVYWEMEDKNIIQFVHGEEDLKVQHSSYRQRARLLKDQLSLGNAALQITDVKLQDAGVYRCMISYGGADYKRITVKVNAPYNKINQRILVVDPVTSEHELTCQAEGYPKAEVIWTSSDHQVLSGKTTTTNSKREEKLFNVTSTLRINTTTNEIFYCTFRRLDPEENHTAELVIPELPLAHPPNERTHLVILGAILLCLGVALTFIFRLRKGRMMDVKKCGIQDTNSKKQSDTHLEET

[7] = target: T2, Programmed cell death 1 ligand 1; experiment: Peptide-mediated small molecule lysosome-targeting chimeric activity based PD-L1 degradation in human A549 cells incubated for 48 hrs by Western blot analysis; format: cell-based
[8] = target: T2, Programmed cell death 1 ligand 1; experiment: Peptide-mediated small molecule lysosome-targeting chimeric activity based PD-L1 degradation in Baf-A1-treated human A549 cells upto 5 uM incubated for 48 hrs by Western blot analysis; format: cell-based
[9] = target: Tyrosine-protein kinase BTK (Homo sapiens) (UniProt Q06187); experiment: Peptide-mediated small molecule lysosome-targeting chimeric activity based BTK degradation in human K562 cells at 10 uM incubated for 48 hrs by Western blot analysis relative to control; format: cell-based
Sequence of Tyrosine-protein kinase BTK (Homo sapiens) (Q06187 whole entry): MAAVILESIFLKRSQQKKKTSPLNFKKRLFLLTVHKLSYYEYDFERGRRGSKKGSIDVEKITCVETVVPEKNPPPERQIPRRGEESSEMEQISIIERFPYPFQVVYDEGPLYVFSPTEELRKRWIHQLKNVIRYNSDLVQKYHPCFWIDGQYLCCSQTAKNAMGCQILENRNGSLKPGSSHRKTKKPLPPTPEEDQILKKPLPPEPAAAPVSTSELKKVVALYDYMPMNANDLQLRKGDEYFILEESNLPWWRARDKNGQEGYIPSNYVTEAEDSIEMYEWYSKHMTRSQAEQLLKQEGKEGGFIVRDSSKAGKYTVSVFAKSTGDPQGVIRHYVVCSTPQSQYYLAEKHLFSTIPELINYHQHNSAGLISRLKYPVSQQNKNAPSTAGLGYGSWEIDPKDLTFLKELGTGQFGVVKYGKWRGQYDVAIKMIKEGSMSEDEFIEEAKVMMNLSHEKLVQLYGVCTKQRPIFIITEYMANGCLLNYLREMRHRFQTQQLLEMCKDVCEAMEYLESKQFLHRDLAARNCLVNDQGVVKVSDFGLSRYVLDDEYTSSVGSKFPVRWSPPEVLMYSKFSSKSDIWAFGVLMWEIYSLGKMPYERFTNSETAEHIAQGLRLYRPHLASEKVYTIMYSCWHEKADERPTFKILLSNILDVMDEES

[10] = target: T3, Retinal rod rhodopsin-sensitive cGMP 3',5'-cyclic phosphodiesterase subunit delta (Homo sapiens, UniProt O43924); experiment: Peptide-mediated small molecule lysosome-targeting chimeric activity based PDE-delta degradation in human MIA PaCa-2 cells at 0.1 uM incubated for 48 hrs by Western blot analysis; format: cell-based
T3 sequence (O43924 whole entry): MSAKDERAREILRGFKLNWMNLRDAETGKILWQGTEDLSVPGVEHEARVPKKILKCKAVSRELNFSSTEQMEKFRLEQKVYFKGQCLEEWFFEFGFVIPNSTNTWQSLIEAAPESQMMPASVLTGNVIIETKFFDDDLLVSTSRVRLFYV

[11] = target: T3, Retinal rod rhodopsin-sensitive cGMP 3',5'-cyclic phosphodiesterase subunit delta; experiment: Peptide-mediated small molecule lysosome-targeting chimeric activity based PDE-delta degradation in human MIA PaCa-2 cells at 5 uM incubated for 48 hrs by Western blot analysis relative to control; format: cell-based
[12] = target: T3, Retinal rod rhodopsin-sensitive cGMP 3',5'-cyclic phosphodiesterase subunit delta; experiment: Peptide-mediated small molecule lysosome-targeting chimeric activity based PDE-delta degradation in human MIA PaCa-2 cells incubated for 48 hrs by Western blot analysis; format: cell-based
[13] = test system: MIA PaCa-2; experiment: Induction of apoptosis in human MIA PaCa-2 cells assessed as viable cells at 5 uM incubated for 48 hrs by Annexin V-FITC/PI staining based flow cytometry (reference value: 92.1 %); format: functional; settings: read-out: Activity
[14] = test system: MIA PaCa-2; experiment: Induction of apoptosis in human MIA PaCa-2 cells assessed as early apoptotic cells at 5 uM incubated for 48 hrs by Annexin V-FITC/PI staining based flow cytometry (reference value: 4.45 %); format: functional
[15] = test system: MIA PaCa-2; experiment: Induction of apoptosis in human MIA PaCa-2 cells assessed as late apoptotic cells at 5 uM incubated for 48 hrs by Annexin V-FITC/PI staining based flow cytometry (reference value: 2.90 %); format: functional
[16] = test system: MIA PaCa-2; experiment: Induction of apoptosis in human MIA PaCa-2 cells assessed as necrotic cells at 5 uM incubated for 48 hrs by Annexin V-FITC/PI staining based flow cytometry (reference value: 0.55 %); format: functional
[17] = test system: MIA PaCa-2; experiment: Induction of apoptosis in human MIA PaCa-2 cells assessed as viable cells at 10 uM incubated for 48 hrs by Annexin V-FITC/PI staining based flow cytometry (reference value: 92.1 %); format: functional; settings: read-out: Activity
[18] = test system: MIA PaCa-2; experiment: Induction of apoptosis in human MIA PaCa-2 cells assessed as early apoptotic cells at 10 uM incubated for 48 hrs by Annexin V-FITC/PI staining based flow cytometry (reference value: 4.45 %); format: functional
[19] = test system: MIA PaCa-2; experiment: Induction of apoptosis in human MIA PaCa-2 cells assessed as late apoptotic cells at 10 uM incubated for 48 hrs by Annexin V-FITC/PI staining based flow cytometry (reference value: 2.90 %); format: functional
[20] = test system: MIA PaCa-2; experiment: Induction of apoptosis in human MIA PaCa-2 cells assessed as necrotic cells at 10 uM incubated for 48 hrs by Annexin V-FITC/PI staining based flow cytometry (reference value: 0.55 %); format: functional
[21] = test system: MIA PaCa-2; experiment: Induction of apoptosis in human MIA PaCa-2 cells assessed as viable cells at 20 uM incubated for 48 hrs by Annexin V-FITC/PI staining based flow cytometry (reference value: 92.1 %); format: functional; settings: read-out: Activity
[22] = test system: MIA PaCa-2; experiment: Induction of apoptosis in human MIA PaCa-2 cells assessed as early apoptotic cells at 20 uM incubated for 48 hrs by Annexin V-FITC/PI staining based flow cytometry (reference value: 4.45 %); format: functional
[23] = test system: MIA PaCa-2; experiment: Induction of apoptosis in human MIA PaCa-2 cells assessed as late apoptotic cells at 20 uM incubated for 48 hrs by Annexin V-FITC/PI staining based flow cytometry (reference value: 2.90 %); format: functional
[24] = test system: MIA PaCa-2; experiment: Induction of apoptosis in human MIA PaCa-2 cells assessed as necrotic cells at 20 uM incubated for 48 hrs by Annexin V-FITC/PI staining based flow cytometry (reference value: 0.55 %); format: functional
[25] = Stability of compound in PBS buffer incubated for 48 hrs by HPLC analysis; format: physicochemical
[26] = Metabolic stability in rat liver microsomes assessed as half life; format: ADME, Microsome
[27] = target: T3, Retinal rod rhodopsin-sensitive cGMP 3',5'-cyclic phosphodiesterase subunit delta; experiment: Peptide-mediated small molecule lysosome-targeting chimeric activity based PDE-delta degradation in Baf-A1-treated human MIA PaCa-2 cells at 0.5 to 1 uM incubated for 48 hrs by Western blot analysis; format: cell-based; settings: dose 0.5-1 µM
[28] = target: T3, Retinal rod rhodopsin-sensitive cGMP 3',5'-cyclic phosphodiesterase subunit delta; experiment: Peptide-mediated small molecule lysosome-targeting chimeric activity based PDE-delta degradation in human MIA PaCa-2 cells assessed as increase in lysosome-related organelles at 1 uM incubated for 48 hrs by TEM analysis; format: cell-based
[29] = target: T3, Retinal rod rhodopsin-sensitive cGMP 3',5'-cyclic phosphodiesterase subunit delta; experiment: Peptide-mediated small molecule lysosome-targeting chimeric activity based PDE-delta degradation in human MIA PaCa-2 cells assessed as reduction in Erk phosphorylation at Thr202/Tyr204 at 0.1 to 5 uM incubated for 48 hrs by Western blot analysis; format: cell-based; settings: dose 0.1-5 µM
[30] = test system: MIA PaCa-2; experiment: Effect on total Erk in human MIA PaCa-2 cells at 0.1 to 5 uM incubated for 48 hrs by Western blot analysis; format: functional, cell-based; settings: dose 0.1-5 µM
[31] = target: T3, Retinal rod rhodopsin-sensitive cGMP 3',5'-cyclic phosphodiesterase subunit delta; experiment: Peptide-mediated small molecule lysosome-targeting chimeric activity based PDE-delta degradation in human MIA PaCa-2 cells assessed as reduction in Akt phosphorylation at S473 at 2 uM incubated for 48 hrs by Western blot analysis; format: cell-based
[32] = test system: MIA PaCa-2; experiment: Effect on total Akt in human MIA PaCa-2 cells at 0.1 to 5 uM incubated for 48 hrs by Western blot analysis; format: functional, cell-based; settings: dose 0.1-5 µM

Cc1ccc(-n2nc3c(=O)n(CCCC(=O)NCCCCCNc4cccc5c4C(=O)N(C4CCC(=O)NC4=O)C5=O)nc(C)c3c2C)cc1 (stereo unspecified)
IC50 [1]: 9.3 µM

N=C(N)NCCC[C@H](NC(=O)CNC(=O)CNC(=O)CNC(=O)CCCCCCCN1CCN(S(=O)(=O)c2ccc(NC(=S)NCc3cccnc3)cc2)CC1)C(=O)N[C@@H](CCCNC(=N)N)C(=O)N[C@@H](CCCNC(=N)N)C(=O)N[C@@H](CCCNC(=N)N)C(=O)N[C@@H](CCCNC(=N)N)C(=O)N[C@@H](CCCNC(=N)N)C(=O)N[C@@H](CCCNC(=N)N)C(=O)N[C@@H](CCCNC(=N)N)C(=O)N[C@@H](CCCNC(=N)N)C(=O)N[C@@H](CC(N)=O)C(=O)N1CCC[C@H]1C(=O)NCC(=O)N[C@@H](Cc1ccc(O)cc1)C(N)=O (X2-[X3]GGGRRRRRRRRRNPGY-NH2)
DC50 [2]: 0.89 µM | Activity ([2]; dose 1-40 µM): Dose-Dependent Effect | Emax [3]: 93% | DC50 [4]: 7 µM | Activity ([4]; dose 1-40 µM): Dose-Dependent Effect | Emax [5]: 90%

COc1nc(OCc2cccc(-c3ccccc3)c2C)ccc1CNCCNC(=O)CCCc1cn(CC(=O)NCC(=O)NCC(=O)N[C@@H](CCCNC(=N)N)C(=O)N[C@@H](CCCNC(=N)N)C(=O)N[C@@H](CCCNC(=N)N)C(=O)N[C@@H](CCCNC(=N)N)C(=O)N[C@@H](CCCNC(=N)N)C(=O)N[C@@H](CCCNC(=N)N)C(=O)N[C@@H](CCCNC(=N)N)C(=O)N[C@@H](CCCNC(=N)N)C(=O)N[C@@H](CCCNC(=N)N)C(=O)N[C@@H](CC(N)=O)C(=O)N2CCC[C@H]2C(=O)NCC(=O)N[C@@H](Cc2ccc(O)cc2)C(N)=O)nn1 (X4-GGRRRRRRRRRNPGY-NH2)
Emax [6]: 92% | DC50 [7]: 0.2 µM | Activity [8]: inactive

N=C(N)NCCC[C@H](NC(=O)CNC(=O)CNC(=O)CNC(=O)CCOCCOCCN1CCN(C/C=C/C(=O)N2CCC[C@@H](n3nc(-c4ccc(Oc5ccccc5)cc4)c4c(N)ncnc43)C2)CC1)C(=O)N[C@@H](CCCNC(=N)N)C(=O)N[C@@H](CCCNC(=N)N)C(=O)N[C@@H](CCCNC(=N)N)C(=O)N[C@@H](CCCNC(=N)N)C(=O)N[C@@H](CCCNC(=N)N)C(=O)N[C@@H](CCCNC(=N)N)C(=O)N[C@@H](CCCNC(=N)N)C(=O)N[C@@H](CCCNC(=N)N)C(=O)N[C@@H](CC(N)=O)C(=O)N1CCC[C@H]1C(=O)NCC(=O)N[C@@H](Cc1ccc(O)cc1)C(N)=O (X5-GGGRRRRRRRRRNPGY-NH2)
Emax [9]: 63%

Cc1ccc(-n2nc3c(=O)n(CCCC(=O)NCCCCCCCC(=O)NCC(=O)NCC(=O)NCC(=O)N[C@@H](CCCNC(=N)N)C(=O)N[C@@H](CCCNC(=N)N)C(=O)N[C@@H](CCCNC(=N)N)C(=O)N[C@@H](CCCNC(=N)N)C(=O)N[C@@H](CCCNC(=N)N)C(=O)N[C@@H](CCCNC(=N)N)C(=O)N[C@@H](CCCNC(=N)N)C(=O)N[C@@H](CCCNC(=N)N)C(=O)N[C@@H](CCCNC(=N)N)C(=O)N[C@@H](CC(N)=O)C(=O)N4CCC[C@H]4C(=O)NCC(=O)N[C@@H](Cc4ccc(O)cc4)C(N)=O)nc(C)c3c2C)cc1 ({X1-Aoc}-GGGRRRRRRRRRNPGY-NH2)
Activity [10]: Active | Emax [11]: 89% | DC50 [12]: 0.23 µM | Activity ([12]; dose 0.1-5 µM): Dose-Dependent Effect | IC50 [1]: 3.6 µM | viability at 5 µM [13]: 88.7% | Activity [14]: 6.85% | Activity [15]: 3.48% | Activity [16]: 0.95% | viability at 10 µM [17]: 73.3% | Activity [18]: 10.7% | Activity [19]: 13.3% | Activity [20]: 2.05% | viability at 20 µM [21]: 59.7% | Activity [22]: 16.8% | Activity [23]: 19.7% | Activity [24]: 3.9% | Stability [25]: Stable | half-life [26]: 33.5 min | Activity [27]: inactive | Activity [28]: Active | Activity [29]: Active | Activity [30]: inactive | Activity [31]: Active | Activity [32]: inactive
